Source: patent publication US12318487B2, “Solid tablet dosage form of ridinilazole” (c/o Summit (Oxford) Limited, priority 2021, dated 2025)

Key:
[1] = Crystal agglomerate particle sizing by laser diffraction (Malvern dry dispersion); assay type: physicochemical
Experimental: This was carried out by laser diffraction using a Malvern 2000 dry disperser. The settings used for sizing are set out below: [table] Sample preparation—Triplicate Invert sample jar or vial 10 times. Weigh approximately 2 g of sample and transfer to the sample tray. Evenly disperse sample in sample tray.

[2] = XRPD limit test for crystal form conversion (Forms D and N) in packaged tablet; assay type: physicochemical; conditions: proposed storage condition, proposed commercial packaging
Excerpt: The stability of the ridinilazole crystal form within the tablet as packaged in the intended commercial packaging configurations. Assessments have been made using a validated discriminatory X-ray powder diffraction (XRPD) method developed as a limit test for detecting Forms D and N within the drug product.

[3] = BCS classification and solubility of drug substance; assay type: physicochemical; conditions: across physiologically relevant pH
Excerpt: Ridinilazole is a BCS class IV, orally administered and locally acting (lower intestines) GI antibiotic with minimal systemic exposure and very low solubility across physiologically relevant pH. BCS class IV drugs are known to present particular formulation challenges, especially in the case of oral formulations (see e.g. Ghadi and Dand (2017) BCS class IV drugs: Highly notorious candidates for formulation development Journal of Controlled Release, 248: 71-95).

[4] = test system: Clostridioides difficile infection (CDI); conditions: Phase 2 trial, CDI recurrence; cited from earlier work
[5] = Table 5, input drug substance at limits of specification, listed as 1
[6] = Table 6, micronized ridinilazole tetrahydrate, additional studies, listed as 1
[7] = Table 5, input drug substance at limits of specification, listed as 2
[8] = Table 6, micronized ridinilazole tetrahydrate, additional studies, listed as 2
[9] = Table 5, input drug substance at limits of specification, listed as 3
[10] = Table 6, micronized ridinilazole tetrahydrate, additional studies, listed as 3
[11] = Table 5, input drug substance at limits of specification, listed as 4
[12] = Table 6, micronized ridinilazole tetrahydrate, additional studies, listed as 4
[13] = Table 6, micronized ridinilazole tetrahydrate, additional studies, listed as 5

Q: With O.O.O.O.c1cc(-c2nc3ccc(-c4ccc5nc(-c6ccncc6)[nH]c5c4)cc3[nH]2)ccn1 [Batch 1, ridinilazole tetrahydrate] as the compound, how does the D10 [1, 5] read?
A: 2 μm

Q: What about the D50 [1, 5] of the same compound?
A: 7 μm

Q: What about the D90 [1, 5] of the same compound?
A: 20 μm

Q: And the D10 [1, 6]?
A: 1.5 μm

Q: And the D50 [1, 6]?
A: 6 μm

Q: And the D90 [1, 6]?
A: 14 μm

Q: For O.O.O.O.c1cc(-c2nc3ccc(-c4ccc5nc(-c6ccncc6)[nH]c5c4)cc3[nH]2)ccn1 [Batch 2, ridinilazole tetrahydrate], which D10 [1, 7] is on record?
A: 1 μm

Q: What about the D50 [1, 7] of the same compound?
A: 5 μm

Q: And the D90 [1, 7]?
A: 11 μm

Q: What about the D10 [1, 8] of the same compound?
A: 1.1 μm

Q: And the D50 [1, 8]?
A: 5 μm

Q: What about the D90 [1, 8] of the same compound?
A: 11 μm

Q: Which D10 [1, 9] does the source give for O.O.O.O.c1cc(-c2nc3ccc(-c4ccc5nc(-c6ccncc6)[nH]c5c4)cc3[nH]2)ccn1 [Batch 3, ridinilazole tetrahydrate] here?
A: 1 μm

Q: What about the D50 [1, 9] of the same compound?
A: 5 μm

Q: And the D90 [1, 9]?
A: 11 μm

Q: What about the D10 [1, 10] of the same compound?
A: 1.7 μm

Q: And the D50 [1, 10]?
A: 7 μm

Q: What about the D90 [1, 10] of the same compound?
A: 14 μm

Q: For O.O.O.O.c1cc(-c2nc3ccc(-c4ccc5nc(-c6ccncc6)[nH]c5c4)cc3[nH]2)ccn1 [Batch 4, ridinilazole tetrahydrate], which D10 [1, 11] is on record?
A: 1 μm

Q: And the D50 [1, 11]?
A: 3 μm

Q: And the D90 [1, 11]?
A: 10 μm

Q: What about the D10 [1, 12] of the same compound?
A: 1.5 μm

Q: What about the D50 [1, 12] of the same compound?
A: 6 μm

Q: What about the D90 [1, 12] of the same compound?
A: 13 μm

Q: What does the source list for O.O.O.O.c1cc(-c2nc3ccc(-c4ccc5nc(-c6ccncc6)[nH]c5c4)cc3[nH]2)ccn1 [Batch 5, ridinilazole tetrahydrate]?
A: D10 [1, 13]: 2.0 μm; D50 [1, 13]: 7 μm; D90 [1, 13]: 14 μm

Q: Which “crystal form conversion within the tablet” value [2] does the source give for c1cc(-c2nc3cc(-c4ccc5[nH]c(-c6ccncc6)nc5c4)ccc3[nH]2)ccn1 [Form A, ridinilazole tetrahydrate] here?
A: No form conversion is detected

Q: For c1cc(-c2nc3ccc(-c4ccc5nc(-c6ccncc6)[nH]c5c4)cc3[nH]2)ccn1 [ridinilazole, 2,2′-di(pyridin-4-yl)-1H,1′H-5,5′-bibenzo[d]imidazole], which solubility [3] is on record?
A: very low

Q: And the “rates of recurrent disease” value [4]?
A: 14.3%

Q: For CN[C@H](CC(C)C)C(=O)N[C@H]1C(=O)N[C@@H](CC(N)=O)C(=O)N[C@H]2C(=O)N[C@H]3C(=O)N[C@H](C(=O)N[C@H](C(=O)O)c4cc(O)cc(O)c4-c4cc3ccc4O)[C@H](O)c3ccc(c(Cl)c3)Oc3cc2cc(c3O[C@@H]2O[C@H](CO)[C@@H](O)[C@H](O)[C@H]2O[C@H]2C[C@](C)(N)[C@H](O)[C@H](C)O2)Oc2ccc(cc2Cl)[C@H]1O [vancomycin, reference compound], which “rates of recurrent disease” value [4] is on record?
A: 34.8%
